Data reported in publication PMC10402871, “Design, synthesis and antiproliferative screening of newly synthesized acrylate derivatives as potential anticancer agents” (RSC Advances, 2023).
Where “and” joins values, the source holds several entries; their conditions need not be identical. Equal values may be shown once.

Tests used:
MCF-10A = test: MTT cytotoxic activity against MCF-10A cells; type: cell-based; conditions: Homo sapiens, MTT assay
[1] = system: MCF-7 breast carcinoma cell line; test: MTT cytotoxic activity against MCF-7 breast carcinoma cell line; type: cell-based; conditions: Homo sapiens, MCF7; MTT assay, MCF-7 cells, 24 h incubation
Method: Cytotoxic activity of the synthesized acrylate derivatives 5a–6i was evaluated against the MCF-7 breast carcinoma cell line using the MTT colorimetric assay. CA-4 was included as a positive control. The results were summarized as IC50 values in Table 1.
Antiproliferative activity of the constructed acrylate molecules 5a–6i was determined on MCF-7 cell line as reported previously.[38] See ESI Appendix A. ^† […]
(§1) S4.2.1. Cytotoxic activity evaluation
To measure the cytotoxic actvity of the synthesized acrylate derivatives 5a,b and 6a-i in breast cancer (MCF-7) cell line. Cell viability assay was assessed using MTT assay method. Cells at density of 1 x 104 were seeded in a 96-well plate at 37 °C for 24 h under 5% CO2. After incubation, the cells were treated with different concentrations of the test acrylate derivatives 5a-6i and incubated for 24 h, then 20 µl of MTT solution at 5 mg/mL was applied and incubated for 4 h at 37 °C. Dimethyl sulphoxide (DMSO) in volume of 100 µl was added to each well to dissolve the purple formazan that had formed. The color intensity of the formazan product, which represents the growth condition of the cells, is quantified by using an ELISA plate reader (EXL 800, USA) at 570 nm absorbance. The experimental conditions were carried out with at least three replicates, and the experiments were repeated at least three times. […]

β-tubulin = molecular target: T1, β-tubulin (Homo sapiens, UniProt P07437); test: β-tubulin polymerization inhibition in MCF-7 cells (Human Beta-tubulin SimpleStep ELISA kit); type: cell-based; conditions: 48 h; for β-tubulin polymerization inhibition percentage: at IC50 concentration
T1 construct: utilizing MCF-7 breast carcinoma cells; endogenous in cells; host or cells: MCF-7 breast carcinoma cells
T1 sequence (P07437 whole entry): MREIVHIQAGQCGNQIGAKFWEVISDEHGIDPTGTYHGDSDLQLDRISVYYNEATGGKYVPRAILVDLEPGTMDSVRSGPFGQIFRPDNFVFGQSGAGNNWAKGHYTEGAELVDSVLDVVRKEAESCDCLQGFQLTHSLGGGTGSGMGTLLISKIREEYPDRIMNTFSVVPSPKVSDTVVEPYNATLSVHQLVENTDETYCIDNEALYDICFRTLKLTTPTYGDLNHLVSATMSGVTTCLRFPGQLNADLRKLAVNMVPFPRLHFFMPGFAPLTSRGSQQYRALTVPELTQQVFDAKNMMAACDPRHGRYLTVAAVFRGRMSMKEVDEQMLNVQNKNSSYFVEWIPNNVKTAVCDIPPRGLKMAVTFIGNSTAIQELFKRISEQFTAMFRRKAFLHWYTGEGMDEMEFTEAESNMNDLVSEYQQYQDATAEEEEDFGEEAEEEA
T1 sequence (P68363 whole entry partner): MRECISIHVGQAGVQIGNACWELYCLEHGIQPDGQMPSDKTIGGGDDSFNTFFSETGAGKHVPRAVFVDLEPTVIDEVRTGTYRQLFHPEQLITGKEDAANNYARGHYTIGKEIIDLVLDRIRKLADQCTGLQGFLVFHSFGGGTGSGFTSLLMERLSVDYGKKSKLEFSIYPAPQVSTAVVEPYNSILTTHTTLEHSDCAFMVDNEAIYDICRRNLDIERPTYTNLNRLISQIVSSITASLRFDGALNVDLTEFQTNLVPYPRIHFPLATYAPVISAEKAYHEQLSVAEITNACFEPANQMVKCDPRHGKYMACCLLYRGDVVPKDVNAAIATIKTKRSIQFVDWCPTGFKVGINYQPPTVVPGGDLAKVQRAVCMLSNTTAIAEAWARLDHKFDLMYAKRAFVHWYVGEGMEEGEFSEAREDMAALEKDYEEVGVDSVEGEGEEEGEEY
Text: The disruption of the cellular microtubule structure and, more importantly, microtubule function that result from inhibiting β-tubulin polymerization leads to the triggering of cellular apoptosis.[30,31] Inhibition of tubulin polymerization has been identified as a possible therapeutic target for the creation of new cancer therapies.[32]
as §1
(§2) To measure the cytotoxic actvity of the synthesized acrylate derivatives 5a,b and 6a-i in breast cancer (MCF-7) cell line. Cell viability assay was assessed using MTT assay method. Cells at density of 1 x 104 were seeded in a 96-well plate at 37 °C for 24 h under 5% CO2. After incubation, the cells were treated with different concentrations […]
(§3) solution at 5 mg/mL was applied and incubated for 4 h at 37 °C. Dimethyl sulphoxide (DMSO) in volume of 100 µl was added to each well to dissolve the purple formazan that had formed. The color intensity of the formazan product, which represents the growth condition of the cells, is quantified by using an ELISA plate reader (EXL 800, USA) at 570 nm absorbance. The experimental conditions were carried out with at least three replicates, and the experiments were repeated at least three times.
(§4) S4.2.2. Tubulin polymerization Assay

Bcl-2 = test: qRT-PCR gene expression of Bcl-2 in MCF-7 cells; type: cell-based; conditions: 2.57 μM, 48 h
Text: (§5) p53, Bax and Bcl-2 play a key role in controlling intrinsic mitochondrial cellular death.[36] […] During the apoptotic process, these mediators have opposing effects. p53 and Bax have proapoptotic impacts, while Bcl-2 has anti-apoptotic effects. […] This assay utilized the quantitative real time reverse transcriptase PCR (qRT-PCR) assay. […] On the other hand, compound 6e decreased the level of anti-apoptotic gene Bcl-2 level by 0.38-fold less than untreated cells.
(§6) The MCF-7 cell line was used for measurement of the expression levels of Apoptotic markers. […]
(§7) S4.2.5. qRT-PCR measurements of p53, Bax and Bcl2 for compound 6e
(§8) Real-time PCR for p53, BAX and Bcl-2 genes expression was done using commercial Qiagen RNA extraction/ BioRad SYBER green PCR master mix according manufacturer's instructions. Briefly, 2 µl of cDNA template, 10 pMol of each forward and reverse primer, 10 µl of 2X Master Mix and to 20 µl total reaction mixture volume by nuclease free water and then was introduced to thermal cycler instrument (Thermo Scientific, USA). The cycling parameters for the PCR amplification were achieved by initial denaturation at 95 °C for 3 minutes followed by 40 cycles of 94 °C for 15 seconds and annealing/extension step at 60 °C for 1 min. Relative quantification of target genes was run on Rotor-Gene 6000 Series Software 1.7 (Build […]
(§9) Table 1: The primer sequences for Real Time PCR assay

[2] = system: MCF-7 breast carcinoma cells; test: Annexin V-FITC/PI apoptosis assay in MCF-7 cells; type: cell-based; conditions: 2.57 μM, 48 h
Method: as §1, §2, §3
S4.2.2. Tubulin polymerization Assay […]
to manufacturer’s instructions using # abcam Human Beta-tubulin simplestep ELISA […]
(§10) S4.2.3. Cell cycle analysis of compound 6e
Cell cycle analysis in MCF-7 cells was investigated using fluorescent Annexin V-FITC/ PI detection kit (BioVision EZCellTM Cell Cycle Analysis Kit Catalog #K920) by flow cytometry assay. MCF-7 cells at a density of 2 × 10^5 per well were harvested and washed twice in PBS. […]
immediately analyzed using FACS Calibur flow cytometer (Becton and Dickinson, […]

[3] = system: MCF-7 breast carcinoma cells; test: Flow cytometric cell cycle analysis of MCF-7 cells; type: cell-based; conditions: 2.57 μM, 48 h
Method: The MCF-7 cell line was used for cell cycle analysis. Assay was carried out as reported previously.[39] See ESI Appendix A. ^† […]
as §1
To measure the cytotoxic actvity of the synthesized acrylate derivatives 5a,b and 6a-i in breast cancer (MCF-7) cell line. Cell viability assay was assessed using MTT assay method. Cells at density of 1 x 104 were seeded in a 96-well plate at 37 °C for 24 h under 5% CO2. After incubation, the cells were treated with different concentrations of the test acrylate derivatives 5a-6i and incubated for 24 h, then 20 µl of MTT solution at 5 mg/mL was applied and incubated for 4 h at 37 °C. Dimethyl sulphoxide (DMSO) in volume of 100 µl was added to each well to dissolve the purple formazan that had formed. The color intensity of the formazan product, which represents the growth condition of the cells, is quantified by using an ELISA plate reader (EXL 800, USA) at 570 nm absorbance. The experimental conditions were carried out with at least three replicates, and the experiments were repeated at least three times.
as §4
Compound 6e and CA-4 were evaluated for their tubulin inhibitory activity according to manufacturer’s instructions using # abcam Human Beta-tubulin simplestep ELISA […]
as §10
Cell cycle analysis in MCF-7 cells was investigated using fluorescent Annexin V-FITC/ PI detection kit (BioVision EZCellTM Cell Cycle Analysis Kit Catalog #K920) by flow cytometry assay. MCF-7 cells at a density of 2 × 10^5 per well were harvested and washed twice in PBS. After that, the cells were incubated at 37 °C and 5% CO2.
The medium was incubated with the tested compound 6e at ita IC50 (µM) for 48 h, washed twice in PBS, fixed with 70% ethanol, rinsed again with PBS. Afterward, medium was stained with DNA fluorochrome PI for 15 min at 37 °C. The samples were immediately analyzed using Facs Calibur flow cytometer (Becton and Dickinson, Heidelberg, Germany).
S4.2.4. Apoptosis assay for compound 6e […]

Bax = test: qRT-PCR gene expression of Bax in MCF-7 cells; type: cell-based; conditions: 2.57 μM, 48 h
Text: as §5, §6, §7, §8, §9

p53 = test: qRT-PCR gene expression of p53 in MCF-7 cells; type: cell-based; conditions: 2.57 μM, 48 h
Text: as §5, §6, §7, §8, §9

Bax/Bcl-2 = Bax/Bcl-2 ratio from qRT-PCR in MCF-7 cells; type: cell-based; conditions: 2.57 μM, 48 h
Text: as §5, §6, §7, §8, §9

Compound | IC50 [1] [µM] | melting point [°C] | other results
COc1ccc(/C=C\c2cc(OC)c(OC)c(OC)c2)cc1O [CA-4, combretastatin A-4, reference compound] | 1.25 ± 0.08 |  | IC50 (MCF-10A): 13.2 ± 0.19 µM; β-tubulin polymerization inhibition percentage (β-tubulin): 89.17% and 82.82%
COc1ccc(C(=O)N/C(=C\c2ccc(OC)c(OC)c2OC)C(=O)O)cc1OC [5a, (Z)-2-(3,4-Dimethoxybenzamido)-3-(2,3,4-trimethoxyphenyl)acrylic acid] | 9.31 ± 0.35 | 201 to 203 | 
CCOC(=O)/C(=C/c1ccc(OC)c(OC)c1OC)NC(=O)c1ccc(OC)c(OC)c1 [6b, (Z)-Ethyl 2-(3,4-dimethoxybenzamido)-3-(2,3,4-trimethoxyphenyl)acrylate] | 17.1 ± 0.49 | 154 to 156 | 
CCCOC(=O)/C(=C/c1ccc(OC)c(OC)c1OC)NC(=O)c1cc(OC)c(OC)c(OC)c1 [6g, (Z)-Propyl 2-(3,4,5-trimethoxybenzamido)-3-(2,3,4-trimethoxyphenyl)acrylate] | 11.3 ± 0.75 | 111 to 113 | 
CCCOC(=O)/C(=C/c1ccc(OC)c(OC)c1OC)NC(=O)c1ccc(OC)c(OC)c1 [6c, (Z)-Propyl 2-(3,4-dimethoxybenzamido)-3-(2,3,4-trimethoxyphenyl)acrylate] | 20.3 ± 0.44 | 119 to 121 | 
COc1cc(C(=O)N/C(=C\c2ccc(OC)c(OC)c2OC)C(=O)O)cc(OC)c1OC [5b, (Z)-2-(3,4,5-Trimethoxybenzamido)-3-(2,3,4-trimethoxyphenyl)acrylic acid] | 5.12 ± 0.32 | 217 to 219 | 
COC(=O)/C(=C/c1ccc(OC)c(OC)c1OC)NC(=O)c1ccc(OC)c(OC)c1 [6a, (Z)-Methyl 2-(3,4-dimethoxybenzamido)-3-(2,3,4-trimethoxyphenyl)acrylate] | 6.74 ± 0.78 | 177 to 179 | 
CCCCOC(=O)C(=Cc1ccc(OC)c(OC)c1OC)NC(=O)c1cc(OC)c(OC)c(OC)c1 [6i, Butyl 2-(3,4,5-trimethoxybenzamido)-3-(2,3,4-trimethoxyphenyl)acrylate] | 33 ± 1.03 | 118 to 120 | 
CCCCOC(=O)/C(=C/c1ccc(OC)c(OC)c1OC)NC(=O)c1ccc(OC)c(OC)c1 [6d, (Z)-Butyl 2-(3,4-dimethoxybenzamido)-3-(2,3,4-trimethoxyphenyl)acrylate] | 42.1 ± 0.96 | 132 to 134 | 
COc1cc(C(=O)N/C(=C\c2ccc(OC)c(OC)c2OC)C(=O)OC(C)C)cc(OC)c1OC [6h, (Z)-Isopropyl 2-(3,4,5-trimethoxybenzamido)-3-(2,3,4-trimethoxyphenyl)acrylate] | 7.08 ± 0.29 | 105 to 107 | 
CCOC(=O)/C(=C/c1ccc(OC)c(OC)c1OC)NC(=O)c1cc(OC)c(OC)c(OC)c1 [6f, (Z)-Ethyl 2-(3,4,5-trimethoxybenzamido)-3-(2,3,4-trimethoxyphenyl)acrylate] | 3.26 ± 0.21 | 127 to 129 | 
COC(=O)/C(=C/c1ccc(OC)c(OC)c1OC)NC(=O)c1cc(OC)c(OC)c(OC)c1 [6e, (Z)-Methyl 2-(3,4,5-trimethoxybenzamido)-3-(2,3,4-trimethoxyphenyl)acrylate] | 2.57 ± 0.16 |  | IC50 (MCF-10A): 19.1 ± 0.31 µM; fold decrease in the level of β-tubulin polymerization compared to untreated control cells (β-tubulin; 2.57 μM): 5.73 fold; β-tubulin polymerization inhibition percentage (β-tubulin): 81.16%; Bcl-2 gene expression level, fold relative to untreated cells (decrease) (Bcl-2): 0.38 fold; late stage apoptotic cells ([2]; control 0.24%): 23.28%; early stage apoptotic cells ([2]; control 0.38%): 14.55%; cell population in G2/M phase ([3]; control 8.20%): 29.96%; cell population in S phase ([3]; control 26.88%): 22.06%; cell population in G1 phase ([3]; control 54.92%): 47.98%; Bax gene expression level, fold relative to untreated control cells (Bax): 3.99 fold; p53 gene expression level, fold relative to untreated control cells (p53): 6.18 fold; increase of the ratio of Bax/Bcl-2 compared to untreated cells (Bax/Bcl-2): 10.5 fold
